Test results reported in US20250163086A1, “Crystalline Forms” (Viatris Asia Pacific Pte. Ltd., priority 2016, published 2025).

Assay: Water content of the crystalline forms (gravimetric vapour sorption, 25° C.)
Assay type: physicochemical
Details: water content varies as a function of relative humidity; GVS profiles 20 to 75% RH at 25° C. (FIGS. 4-6); hydrochloride
Procedure: Measurements were performed on an IGASORP Model HAS-036-080 moisture sorption instrument (Hiden Isochema, Warrington, UK) operated in stepping mode at 25° C. The sample was allowed to equilibrate at the starting relative humidity (RH) before starting a pre-defined humidity program in steps of 5% ΔRH and with a maximal equilibration time of 24 hours per step. About 20 to 30 mg of each sample was used.

| coordinated and/or non-coordinated water comprised in the crystalline form | Compound |
| --- | --- |
| 0 to 3% | CCCCOC(=O)N1CCN(C(=O)[C@H](CP(=O)(O)O)NC(=O)c2cc(N3CC[C@H](OC)C3)nc(-c3ccccc3)n2)CC1.Cl [Crystalline form 1, 4-((R)-2-{[6-((S)-3-methoxy-pyrrolidin-1-yl)-2-phenyl-pyrimidine-4-carbonyl]-amino}-3-phosphono-propionyl)-piperazine-1-carboxylic acid butyl ester hydrochloride] |
| 5 to 10% | CCCCOC(=O)N1CCN(C(=O)[C@H](CP(=O)(O)O)NC(=O)c2cc(N3CC[C@H](OC)C3)nc(-c3ccccc3)n2)CC1.Cl [Crystalline form 2, 4-((R)-2-{[6-((S)-3-methoxy-pyrrolidin-1-yl)-2-phenyl-pyrimidine-4-carbonyl]-amino}-3-phosphono-propionyl)-piperazine-1-carboxylic acid butyl ester hydrochloride] |
| 2.5 to 8% | CCCCOC(=O)N1CCN(C(=O)[C@H](CP(=O)(O)O)NC(=O)c2cc(N3CC[C@H](OC)C3)nc(-c3ccccc3)n2)CC1.Cl [Crystalline form 3, 4-((R)-2-{[6-((S)-3-methoxy-pyrrolidin-1-yl)-2-phenyl-pyrimidine-4-carbonyl]-amino}-3-phosphono-propionyl)-piperazine-1-carboxylic acid butyl ester hydrochloride] |
